US7319098B2, “1,3-dioxoisoindole derivatives having selective antagonism of T-type calcium channel” (Korea Institute of Science and Technology, priority 2006, dated 2008)

Target: T1, α1G T-type Ca2+ channels (Homo sapiens, UniProt O43497)
T1 construct: expressed in transfected cells; host or cells: HEK293 cells stably expressing α1G and Kir2.1
Test: Screening of activity against T-type calcium channel with FDSS6000 (fluorescence, KCl-induced [Ca2+]i increase)
Format: cell-based
Details: 100 μM; HEK293 cells expressing α1G and Kir2.1; read-out: Inhibitory effect (%) of T-type calcium channel, Inhibition (%)
Method: Meanwhile, the antagonistic activity of the novel compound of Formula (1) herein against T-type calcium channel was tested as described below. The synthesized compounds were tested for the activity against T-type calcium channel with FDSS6000. Compounds with good activity were selected and IC50 values were exactly obtained by using electrophysiological whole cell patch clamp method. HEK293 cells which stably express both α1G and Kir2.1 subunits were grown in Dulbecco's modified Eagle's medium supplemented with 10% (v/v) fetal bovine serum, penicillin (100 U/mL), streptomycin (100 μg/mL), geneticin (500 μg/mL), and +puromycin (I μg/mL) at 37° C. in a humid atmosphere of 5% CO2 and 95% air. Cells were seeded into 96-well black wall clear bottom plates at a density of 4×10^4 cells/well and were used the next day for high-throughput screening (HTS) FDSS6000 assay. For FDSS6000 assay, cells were incubated for 60 min at room temperature with 5 μM fluo3/AM and 0.001% Pluronic F-127 in a HEPES-buffered solution composed of (in mM): 115 NaCl, 5.4 KCl, 0.8 MgCl2, 1.8 CaCl2, 20 HEPES, 13.8 glucose (pH 7.4). During the fluorescence-based FDSS6000 assay, cells in HEPES-buffered solution containing 10 mM CaCl2 were pretreated with a certain concentration of test compounds and then treated with high concentration of KCl ([…]). α1G T-type Ca^2+ channels were activated by using high concentration of KCl (70 mM) and the increase in [Ca^2+]i by KCl-induced depolarization was detected. During the whole procedure, cells were washed using the BIO-TEK 96-well washer. All data were collected and analyzed using FDSS6000 and related software (Hamamatsu, Japan). The IC50 results of examining the inhibitory effects of the compounds herein selected with FDSS6000 on the calcium influx through the T-type calcium channel are provided in TABLEs 1 and 2.

T1 sequence (O43497 whole entry): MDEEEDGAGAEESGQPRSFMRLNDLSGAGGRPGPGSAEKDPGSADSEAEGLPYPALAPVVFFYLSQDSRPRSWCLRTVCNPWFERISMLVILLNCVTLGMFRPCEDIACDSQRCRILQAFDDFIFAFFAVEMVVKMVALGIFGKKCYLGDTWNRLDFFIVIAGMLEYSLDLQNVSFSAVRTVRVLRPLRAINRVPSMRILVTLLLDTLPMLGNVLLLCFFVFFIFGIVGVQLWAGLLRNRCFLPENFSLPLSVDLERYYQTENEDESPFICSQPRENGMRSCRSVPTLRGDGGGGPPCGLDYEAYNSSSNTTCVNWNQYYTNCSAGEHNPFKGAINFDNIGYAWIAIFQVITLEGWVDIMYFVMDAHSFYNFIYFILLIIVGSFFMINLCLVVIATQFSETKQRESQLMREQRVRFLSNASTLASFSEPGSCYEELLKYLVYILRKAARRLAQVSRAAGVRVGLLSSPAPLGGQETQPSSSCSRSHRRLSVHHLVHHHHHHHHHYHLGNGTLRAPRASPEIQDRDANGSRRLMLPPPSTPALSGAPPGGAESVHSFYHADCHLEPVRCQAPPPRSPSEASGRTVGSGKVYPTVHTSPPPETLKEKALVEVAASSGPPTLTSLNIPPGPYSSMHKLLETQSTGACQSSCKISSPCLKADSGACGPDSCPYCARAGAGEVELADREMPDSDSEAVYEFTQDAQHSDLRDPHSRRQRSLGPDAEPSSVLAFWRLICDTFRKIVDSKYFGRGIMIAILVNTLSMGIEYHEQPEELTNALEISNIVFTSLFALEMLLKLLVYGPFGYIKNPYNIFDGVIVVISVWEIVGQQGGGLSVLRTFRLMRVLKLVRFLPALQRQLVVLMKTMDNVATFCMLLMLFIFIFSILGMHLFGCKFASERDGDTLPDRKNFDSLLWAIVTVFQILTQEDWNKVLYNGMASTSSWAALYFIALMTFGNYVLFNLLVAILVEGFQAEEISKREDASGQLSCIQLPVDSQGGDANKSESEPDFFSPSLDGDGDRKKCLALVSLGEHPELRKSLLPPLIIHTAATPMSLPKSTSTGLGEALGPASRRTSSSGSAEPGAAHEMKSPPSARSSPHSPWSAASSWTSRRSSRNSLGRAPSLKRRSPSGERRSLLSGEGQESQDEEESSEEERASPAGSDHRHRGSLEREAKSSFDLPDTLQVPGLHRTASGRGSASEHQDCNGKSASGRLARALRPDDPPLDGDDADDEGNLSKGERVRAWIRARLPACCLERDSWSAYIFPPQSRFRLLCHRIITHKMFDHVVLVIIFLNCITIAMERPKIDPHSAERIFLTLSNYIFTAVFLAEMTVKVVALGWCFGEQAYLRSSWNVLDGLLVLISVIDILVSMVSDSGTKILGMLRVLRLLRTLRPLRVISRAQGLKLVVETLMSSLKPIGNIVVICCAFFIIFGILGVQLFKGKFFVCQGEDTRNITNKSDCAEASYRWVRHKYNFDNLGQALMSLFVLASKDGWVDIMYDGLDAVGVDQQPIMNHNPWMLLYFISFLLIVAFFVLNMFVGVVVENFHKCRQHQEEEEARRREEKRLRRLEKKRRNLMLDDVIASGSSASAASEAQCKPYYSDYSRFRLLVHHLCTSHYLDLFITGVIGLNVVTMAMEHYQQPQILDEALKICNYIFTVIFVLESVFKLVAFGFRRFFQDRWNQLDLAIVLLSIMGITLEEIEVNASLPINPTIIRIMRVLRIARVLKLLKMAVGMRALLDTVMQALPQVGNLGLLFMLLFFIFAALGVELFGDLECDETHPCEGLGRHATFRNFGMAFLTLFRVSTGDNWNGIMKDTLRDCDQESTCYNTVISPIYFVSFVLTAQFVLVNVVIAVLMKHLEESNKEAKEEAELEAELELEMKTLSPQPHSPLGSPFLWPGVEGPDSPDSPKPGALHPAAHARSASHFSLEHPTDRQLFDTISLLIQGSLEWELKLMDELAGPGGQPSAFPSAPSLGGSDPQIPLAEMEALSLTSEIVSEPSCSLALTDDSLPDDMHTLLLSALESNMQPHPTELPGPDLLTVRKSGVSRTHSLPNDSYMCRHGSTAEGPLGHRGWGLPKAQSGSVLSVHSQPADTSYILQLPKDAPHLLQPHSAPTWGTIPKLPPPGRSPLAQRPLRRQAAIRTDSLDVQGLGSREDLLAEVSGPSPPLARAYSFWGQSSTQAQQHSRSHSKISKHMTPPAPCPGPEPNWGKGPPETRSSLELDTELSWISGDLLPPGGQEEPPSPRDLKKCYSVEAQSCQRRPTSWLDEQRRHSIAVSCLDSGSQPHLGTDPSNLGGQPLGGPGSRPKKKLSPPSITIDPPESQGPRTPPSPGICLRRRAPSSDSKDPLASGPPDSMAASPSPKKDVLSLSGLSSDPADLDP

In the case of O=C(NCCN1CCCCC1)c1ccc2c(c1)C(=O)N(c1ccccc1)C2=O [Compound 1, 1-{2-[(1,3-dioxo-2-phenyl-2,3-dihydro-1H-isoindol-5-carbonyl)-amino]-ethyl}-piperidinium chloride], the inhibition at 100 µM is reported as 28.1%.
CC1CCCCN1CCCNC(=O)c1ccc2c(c1)C(=O)N(c1ccccc1)C2=O (stereo not drawn) [Compound 2, 1-{3-[(1,3-dioxo-2-phenyl-2,3-dihydro-1H-isoindol-5-carbonyl)-amino]-propyl}-2-methyl-piperidinium chloride] gave an inhibition at 100 µM of 33.8%.
O=C(NCCN1CCCC1)c1ccc2c(c1)C(=O)N(c1ccccc1)C2=O [Compound 3, 1-{2-[(1,3-dioxo-2-phenyl-2,3-dihydro-1H-isoindol-5-carbonyl)-amino]-ethyl}-pyrrolidinium chloride] gave an inhibition at 100 µM of 20.3%.
Work on O=C(NCCCN1CCCC1)c1ccc2c(c1)C(=O)N(c1ccccc1)C2=O [Compound 4, 1-{3-[(1,3-dioxo-2-phenyl-2,3-dihydro-1H-isoindol-5-carbonyl)-amino]-propyl}-pyrrolidinium chloride] yielded an inhibition at 100 µM of 38.7%.
For O=C(NCCN1CCOCC1)c1ccc2c(c1)C(=O)N(c1ccccc1)C2=O [Compound 5, 4-{2-[(1,3-dioxo-2-phenyl-2,3-dihydro-1H-isoindol-5-carbonyl)-amino]-ethyl}-4-morpholinium chloride], the inhibition at 100 µM was 22.7%.
O=C(NCCCN1CCOCC1)c1ccc2c(c1)C(=O)N(c1ccccc1)C2=O [Compound 6, 4-{3-[(1,3-dioxo-2-phenyl-2,3-dihydro-1H-isoindol-5-carbonyl)-amino]-propyl}-4-morpholinium chloride] was tested, and the inhibition at 100 µM was 22.3%.
Work on O=C(NCCN1CCCCC1)c1ccc2c(c1)C(=O)N(c1ccccc1F)C2=O [Compound 7, 1-(2-{[2-(2-fluoro-phenyl)-1,3-dioxo-2,3-dihydro-1H-isoindol-5-carbonyl]-amino}-ethyl)-piperidinium chloride] yielded an inhibition at 100 µM of 40.6%.
For CC1CCCCN1CCCNC(=O)c1ccc2c(c1)C(=O)N(c1ccccc1F)C2=O (stereo not drawn) [Compound 8, 1-(3-{[2-(2-fluoro-phenyl)-1,3-dioxo-2,3-dihydro-1H-isoindol-5-carbonyl]-amino}-propyl)-2-methyl-piperidinium chloride], the inhibition at 100 µM was 36.8%.
Compound O=C(NCCN1CCCC1)c1ccc2c(c1)C(=O)N(c1ccccc1F)C2=O [Compound 9, 1-(2-{[2-(2-fluoro-phenyl)-1,3-dioxo-2,3-dihydro-1H-isoindol-5-carbonyl]-amino}-ethyl)-pyrrolidinium chloride] has an inhibition at 100 µM of 39.7%.
O=C(NCCCN1CCCC1)c1ccc2c(c1)C(=O)N(c1ccccc1F)C2=O [Compound 10, 1-(3-{[2-(2-fluoro-phenyl)-1,3-dioxo-2,3-dihydro-1H-isoindol-5-carbonyl]-amino}-propyl)-pyrrolidinium chloride] was tested, and the inhibition at 100 µM was 32.5%.
O=C(NCCN1CCOCC1)c1ccc2c(c1)C(=O)N(c1ccccc1F)C2=O [Compound 11, 4-(2-{[2-(2-fluoro-phenyl)-1,3-dioxo-2,3-dihydro-1H-isoindol-5-carbonyl]-amino}-ethyl)-4-morpholinium chloride] gave an inhibition at 100 µM of 22.7%.
O=C(NCCCN1CCOCC1)c1ccc2c(c1)C(=O)N(c1ccccc1F)C2=O [Compound 12, 4-(3-{[2-(2-fluoro-phenyl)-1,3-dioxo-2,3-dihydro-1H-isoindol-5-carbonyl]-amino}-propyl)-4-morpholinium chloride] was tested, and the inhibition at 100 µM was 21.1%.
O=C(NCCN1CCCCC1)c1ccc2c(c1)C(=O)N(c1cccc(F)c1)C2=O [Compound 13, 1-(2-{[2-(3-fluoro-phenyl)-1,3-dioxo-2,3-dihydro-1H-isoindol-5-carbonyl]-amino}-ethyl)-piperidinium chloride] showed an inhibition at 100 µM of 43%.
With CC1CCCCN1CCCNC(=O)c1ccc2c(c1)C(=O)N(c1cccc(F)c1)C2=O (stereo not drawn) [Compound 14, 1-(3-{[2-(3-fluoro-phenyl)-1,3-dioxo-2,3-dihydro-1H-isoindol-5-carbonyl]-amino}-propyl)-2-methyl-piperidinium chloride] the inhibition at 100 µM was 44.2%.
O=C(NCCN1CCCC1)c1ccc2c(c1)C(=O)N(c1cccc(F)c1)C2=O [Compound 15, 1-(2-{[2-(3-fluoro-phenyl)-1,3-dioxo-2,3-dihydro-1H-isoindol-5-carbonyl]-amino}-ethyl)-pyrrolidinium chloride] showed an inhibition at 100 µM of 25.8%.
With O=C(NCCCN1CCCC1)c1ccc2c(c1)C(=O)N(c1cccc(F)c1)C2=O [Compound 16, 1-(3-{[2-(3-fluoro-phenyl)-1,3-dioxo-2,3-dihydro-1H-isoindol-5-carbonyl]-amino}-propyl)-pyrrolidinium chloride] the inhibition at 100 µM was 30%.
For O=C(NCCN1CCOCC1)c1ccc2c(c1)C(=O)N(c1cccc(F)c1)C2=O [Compound 17, 4-(2-{[2-(3-fluoro-phenyl)-1,3-dioxo-2,3-dihydro-1H-isoindol-5-carbonyl]-amino}-ethyl)-4-morpholinium chloride], the inhibition at 100 µM was 29.2%.
Compound O=C(NCCCN1CCOCC1)c1ccc2c(c1)C(=O)N(c1cccc(F)c1)C2=O [Compound 18, 4-(3-{[2-(3-fluoro-phenyl)-1,3-dioxo-2,3-dihydro-1H-isoindol-5-carbonyl]-amino}-propyl)-4-morpholinium chloride] has an inhibition at 100 µM of 22.7%.
O=C(NCCN1CCCCC1)c1ccc2c(c1)C(=O)N(c1ccc(F)cc1)C2=O [Compound 19, 1-(2-{[2-(4-fluoro-phenyl)-1,3-dioxo-2,3-dihydro-1H-isoindol-5-carbonyl]-amino}-ethyl)-piperidinium chloride] gave an inhibition at 100 µM of 45.7%.
CC1CCCCN1CCCNC(=O)c1ccc2c(c1)C(=O)N(c1ccc(F)cc1)C2=O (stereo not drawn) [Compound 20, 1-(3-{[2-(4-fluoro-phenyl)-1,3-dioxo-2,3-dihydro-1H-isoindol-5-carbonyl]-amino}-propyl)-2-methyl-piperidinium chloride] gave an inhibition at 100 µM of 44.7%.
O=C(NCCN1CCCC1)c1ccc2c(c1)C(=O)N(c1ccc(F)cc1)C2=O [Compound 21, 1-(2-{[2-(4-fluoro-phenyl)-1,3-dioxo-2,3-dihydro-1H-isoindol-5-carbonyl]-amino}-ethyl)-pyrrolidinium chloride] was tested, and the inhibition at 100 µM was 19.4%.
Compound O=C(NCCCN1CCCC1)c1ccc2c(c1)C(=O)N(c1ccc(F)cc1)C2=O [Compound 22, 1-(3-{[2-(4-fluoro-phenyl)-1,3-dioxo-2,3-dihydro-1H-isoindol-5-carbonyl]-amino}-propyl)-pyrrolidinium chloride] has an inhibition at 100 µM of 19.3%.
With O=C(NCCN1CCOCC1)c1ccc2c(c1)C(=O)N(c1ccc(F)cc1)C2=O [Compound 23, 4-(2-{[2-(4-fluoro-phenyl)-1,3-dioxo-2,3-dihydro-1H-isoindol-5-carbonyl]-amino}-ethyl)-4-morpholinium chloride] the inhibition at 100 µM was 14.5%.
O=C(NCCCN1CCOCC1)c1ccc2c(c1)C(=O)N(c1ccc(F)cc1)C2=O [Compound 24, 4-(3-{[2-(4-fluoro-phenyl)-1,3-dioxo-2,3-dihydro-1H-isoindol-5-carbonyl]-amino}-propyl)-4-morpholinium chloride] showed an inhibition at 100 µM of 21.4%.
In the case of O=C(NCCN1CCCCC1)c1ccc2c(c1)C(=O)N(c1ccccc1Cl)C2=O [Compound 25, 1-(2-{[2-(2-chloro-phenyl)-1,3-dioxo-2,3-dihydro-1H-isoindol-5-carbonyl]-amino}-ethyl)-piperidinium chloride], the inhibition at 100 µM is reported as 38.2%.
For O=C(NCCN1CCCCC1)c1ccc2c(c1)C(=O)N(c1cccc(Cl)c1)C2=O [Compound 26, 1-(2-{[2-(3-chloro-phenyl)-1,3-dioxo-2,3-dihydro-1H isoindol-5-carbonyl]-amino}-ethyl)-piperidinium chloride], the inhibition at 100 µM was 52.7%.
O=C(NCCN1CCCCC1)c1ccc2c(c1)C(=O)N(c1ccc(Cl)cc1)C2=O [Compound 27, 1-(2-{[2-(4-chloro-phenyl)-1,3-dioxo-2,3-dihydro-1H-isoindol-5-carbonyl]-amino}-ethyl)-piperidinium chloride] showed an inhibition at 100 µM of 44.5%.
With Cc1ccccc1N1C(=O)c2ccc(C(=O)NCCN3CCCCC3)cc2C1=O [Compound 28, 1-{2-[(1,3-dioxo-2-o-tolyl-2,3-dihydro-1H-isoindol-5-carbonyl)-amino]-ethyl}-piperidinium chloride] the inhibition at 100 µM was 45.6%.
Work on Cc1ccccc1N1C(=O)c2ccc(C(=O)NCCCN3CCCCC3C)cc2C1=O (stereo not drawn) [Compound 29, 1-{3-[(1,3-dioxo-2-o-tolyl-2,3-dihydro-1H-isoindol-5-carbonyl)-amino]-propyl}-2-methyl-piperidinium chloride] yielded an inhibition at 100 µM of 53.8%.
Cc1ccccc1N1C(=O)c2ccc(C(=O)NCCN3CCCC3)cc2C1=O [Compound 30, 1-{2-[(1,3-dioxo-2-o-tolyl-2,3-dihydro-1H-isoindol-5-carbonyl)-amino]-ethyl}-pyrrolidinium chloride] showed an inhibition at 100 µM of 33.6%.
